According to US20180200257A1, “METHODS FOR THE TREATMENT OF INFLAMMATORY DISORDERS” (Galapagos NV, priority 2015, published 2018):

Tested on: subjects with moderately to severely active RA who have an inadequate response to methotrexate (MTX)
Assay: Study 1 (add-on to MTX) - ACR responses (ACR20/50/70)
Type: in vivo, human
Source text: The terms “ACR20”, “ACR50” and “ACR70” as used herein are scores which indicate how much a patient's rheumatoid arthritis has improved according to criteria set out by the American College of Rheumatology (ACR). The ACR score represents a percentage. An ACR20 score means that a person's RA has improved by 20%, an ACR50 score means it has improved by 50%, and an ACR70 score means it has improved by 70%. Specifically, to qualify for an ACR20 score, a person with RA must have at least 20% fewer tender joints and at least 20% fewer swollen joints. In addition the patient must show a 20% improvement in at least three of the following five areas: the person's overall (global) assessment of his or her own RA, the physician's global assessment of the person's RA, the person's assessment of his or her own pain, the person's assessment of his or her own physical functioning, and the results of an erythrocyte sedimentation rate or C-reactive protein (CRP) blood test (both of which test for inflammation). ACR50 and ACR70 scores use the same criteria but require 50% and 70% improvement, respectively, (Felson et al., 1993). In the data presented herein the CRP blood test is used.
Double-blind, placebo-controlled add on study in subjects with moderately to severely active RA who have an inadequate response to methotrexate (MTX) (oral or parenteral).
595 subjects randomized to one of 6 dose regimens of Compound 1 (dosed as [Compound 1:HCl:3H2O]) (3 dose levels administered either once or twice daily) or placebo on top of each subject's stable dose of MTX.
Compound 1 (dosed as [Compound 1:HCl:3H2O]) is dosed for twelve weeks once daily (q.d.) (50 mg, 100 mg or 200 mg) or twice daily (b.i.d.) (25 mg, 50 mg or 100 mg); or placebo.
At Week 12, the subjects on placebo who have not achieved 20% improvement in swollen joint count (SJC66) and tender joint count (TJC68) are re-randomized automatically to receive Compound 1 (dosed as a [Compound 1:HCl:3H2O]) either at 100 mg q.d. or 50 mg b.i.d. doses in a blinded fashion; subjects on 50 mg q.d. who have not achieved 20% improvement in SJC66 and TJC68 will be assigned to 100 mg q.d. and subjects on 25 mg b.i.d. that have not achieved a 20% improvement in SJC66 and TJC68 will be assigned to 50 mg b.i.d. Subjects who switch treatment at week 12 are handled as if they discontinued at week 12 for the purpose of statistical analysis, whereas subjects in the other groups will maintain their randomized treatment until Week 24.
The American College of Rheumatology (ACR) composite score, which evaluates clinical improvement relative to an initial assessment, is a commonly accepted efficacy end point for clinical trials in patients with rheumatoid arthritis. The ACR score correspond to a percentage improvement in pre-set parameters, and therefore measures the evolution of the disease in a patient. For example, ACR20 denotes at least 20% improvement in tender and swollen joint counts and in three of the following end points: global assessment by the patient, global assessment by the doctor, C reactive protein (CRP), patient's pain Visual Analogue Scale and Health Assessment Questionnaire Score. The number of swollen joints, ESR and CRP correlate with radiographic progression of joint damage, whereas tender joint counts, as well as global assessments by doctors and patients, and patients' reports of pain, are sensitive to change in clinical outcomes. Physical function, as assessed by the Health Assessment Questionnaire Score, is a potent predictor of the risk of disability in rheumatoid arthritis (Felson and American College of Rheumatology Committee to Reevaluate Improvement Criteria, 2007; Felson et al., 1993).
In particular, the list of parameters used to assess ACR score can be found in the Table XCVI below and the results of the ACR responses at week 12 via either NRI or LOCF are shown in the tables below. The Hommel-corrected p-value for the pairwise comparisons of each group with placebo is shown. […]

[1] = 2 × 25 mg b.i.d., week 2, 12 weeks results
[2] = 2 × 25 mg b.i.d., week 2, 24 weeks results
[3] = 2 × 25 mg b.i.d., week 4, 12 weeks results
[4] = 2 × 25 mg b.i.d., week 4, 24 weeks results
[5] = 2 × 25 mg b.i.d., week 8, 12 weeks results
[6] = 2 × 25 mg b.i.d., week 8, 24 weeks results
[7] = 2 × 25 mg b.i.d., week 12, 12 weeks results
[8] = 2 × 25 mg b.i.d., week 12, 24 weeks results
[9] = 2 × 25 mg b.i.d., week 16, 24 weeks results
[10] = 2 × 25 mg b.i.d., week 20, 24 weeks results
[11] = 2 × 25 mg b.i.d., week 24, 24 weeks results
[12] = 2 × 25 mg b.i.d., at week 1, 12 weeks results
[13] = 2 × 25 mg b.i.d., at week 1, 24 weeks results
[14] = 2 × 50 mg b.i.d., week 2, 12 weeks results
[15] = 2 × 50 mg b.i.d., week 2, 24 weeks results
[16] = 2 × 50 mg b.i.d., week 4, 12 weeks results
[17] = 2 × 50 mg b.i.d., week 4, 24 weeks results
[18] = 2 × 50 mg b.i.d., week 8, 12 weeks results
[19] = 2 × 50 mg b.i.d., week 8, 24 weeks results

## O=C(Nc1nc2cccc(-c3ccc(CN4CCS(=O)(=O)CC4)cc3)n2n1)C1CC1 [Compound 1, cyclopropanecarboxylic acid {5-[4-(1,1-dioxo-thiomorpholin-4-ylmethyl)-phenyl]-[1,2,4]triazolo[1,5-a]pyridin-2-yl}-amide]
200 mg q.d., week 8, 12 weeks results
  ACR70 (NRI): 18.6%
[1]
  ACR20 (LOCF): 27.9%
  ACR20 (NRI): 29.1%
  ACR50 (LOCF): 7.0%
  ACR50 (NRI): 7.0%
  ACR70 (LOCF): 2.3%
  ACR70 (NRI): 2.3%
[2]
  ACR20 (LOCF): 29.1%
  ACR20 (NRI): 29.1%
  ACR50 (LOCF): 7.0%
  ACR50 (NRI): 7.0%
  ACR70 (LOCF): 2.3%
  ACR70 (NRI): 2.3%
[3]
  ACR20 (LOCF): 44.2%
  ACR20 (NRI): 45.3%
  ACR50 (LOCF): 16.3%
  ACR50 (NRI): 15.1%
  ACR70 (LOCF): 5.8%
  ACR70 (NRI): 5.8%
[4]
  ACR20 (LOCF): 46.5%
  ACR20 (NRI): 45.3%
  ACR50 (LOCF): 16.3%
  ACR50 (NRI): 15.1%
  ACR70 (LOCF): 5.8%
  ACR70 (NRI): 5.8%
[5]
  ACR20 (LOCF): 58.1%
  ACR20 (NRI): 58.1%
  ACR50 (LOCF): 25.6%
  ACR50 (NRI): 25.6%
  ACR70 (LOCF): 8.1%
  ACR70 (NRI): 9.3%
[6]
  ACR20 (LOCF): 59.3%
  ACR20 (NRI): 58.1%
  ACR50 (LOCF): 25.6%
  ACR50 (NRI): 25.6%
  ACR70 (LOCF): 9.3%
  ACR70 (NRI): 9.3%
[7]
  ACR20 (LOCF): 58.1%
  ACR20 (NRI): 57.0%
  ACR50 (LOCF): 29.1%
  ACR50 (NRI): 27.9%
  ACR70 (LOCF): 14.0%
  ACR70 (NRI): 14.0%
[8]
  ACR20 (LOCF): 59.3%
  ACR20 (NRI): 57.0%
  ACR50 (LOCF): 29.1%
  ACR50 (NRI): 27.9%
  ACR70 (LOCF): 14.0%
  ACR70 (NRI): 14.0%
[9]
  ACR20 (LOCF): 55.8%
  ACR20 (NRI): 52.3%
  ACR50 (LOCF): 31.4%
  ACR70 (LOCF): 10.5%
[10]
  ACR20 (LOCF): 58.1%
  ACR20 (NRI): 52.3%
  ACR50 (LOCF): 41.9%
  ACR70 (LOCF): 11.6%
[11]
  ACR20 (LOCF): 62.8%
  ACR20 (NRI): 55.8%
  ACR50 (LOCF): 38.4%
  ACR70 (LOCF): 22.1%
[12]
  ACR20 (LOCF): 17.4%
  ACR20 (NRI): 17.4%
  ACR50 (LOCF): 2.3%
  ACR50 (NRI): 3.5%
  ACR70 (LOCF): 1.2%
  ACR70 (NRI): 1.2%
[13]
  ACR20 (LOCF): 17.4%
  ACR20 (NRI): 17.4%
  ACR50 (LOCF): 3.5%
  ACR50 (NRI): 3.5%
  ACR70 (LOCF): 2.4%
  ACR70 (NRI): 1.2%
[14]
  ACR20 (LOCF): 40.0%
  ACR20 (NRI): 41.2%
  ACR50 (LOCF): 11.8%
  ACR50 (NRI): 11.8%
  ACR70 (LOCF): 5.9%
  ACR70 (NRI): 5.9%
[15]
  ACR20 (LOCF): 41.2%
  ACR20 (NRI): 41.2%
  ACR50 (LOCF): 11.8%
  ACR50 (NRI): 11.8%
  ACR70 (LOCF): 5.9%
  ACR70 (NRI): 5.9%
[16]
  ACR20 (LOCF): 45.9%
  ACR20 (NRI): 44.7%
  ACR50 (LOCF): 20.0%
  ACR50 (NRI): 17.6%
  ACR70 (LOCF): 9.4%
  ACR70 (NRI): 9.4%
[17]
  ACR20 (LOCF): 47.1%
  ACR20 (NRI): 45.3%
  ACR50 (LOCF): 20.0%
  ACR50 (NRI): 17.6%
  ACR70 (LOCF): 9.4%
  ACR70 (NRI): 9.4%
[18]
  ACR20 (LOCF): 55.3%
  ACR20 (NRI): 54.1%
  ACR50 (LOCF): 32.9%
  ACR50 (NRI): 32.9%
  ACR70 (LOCF): 14.1%
  ACR70 (NRI): 14.1%
[19]
  ACR20 (LOCF): 55.3%
  ACR20 (NRI): 54.1%
  ACR50 (LOCF): 32.9%
  ACR50 (NRI): 32.9%
  ACR70 (LOCF): 14.1%
